# Tests used:
# Format in all cases: cell-based
# [1] = tested on: Staphylococcus aureus ATCC29213 rpoB^D417Y; experiment: microbe, parasite or virus in culture; conditions: Staphylococcus aureus ATCC29213 rpoB^D417Y, rifR; read-out: Antimicrobial activity (MIC)
# Description: (§1) Representative compounds were assayed for antimicrobial activity as follows: Minimum Inhibitory Concentrations (“MICs”) were determined by the microbroth dilution method as per NCCLS guidelines (National Committee for Clinical Laboratory Standards. 2000. Methods for dilution antimicrobial susceptibility tests for bacteria that grow aerobically, 5th ed. M7-A5. National Committee for Clinical Laboratory Standards, Wayne, Pa.), except that all growth incubations were conducted at 37° C. Bacterial cultures were tested in the following bacteriological media: S. aureus, S. epidermidis, and E. coli in Cation-Adjusted Mueller-Hinton Broth, S. pneumoniae in THY Broth supplemented with 1 mg/mL catalase under 5% CO2 atmosphere, S. pyogenes in THY Broth, E. faecalis in BHI Broth, H. influenzae in BHI Broth supplemented with 0.75 μL of 1 mg/mL NAD and 150 μL of 1 mg/ml hematin per 5 mL, and M. smegmatis in Middlebrook Broth plus ADC Enrichment.
# (§2) S. aureus ATCC 29213 RpoB^H418Y is a rifampin-resistant strain with a mutation in the RpoB gene of RNA polymerase. […] S. aureus EN1252a gyrA^S84L grlA^S80F is a quinolone-resistant strain due to double gene mutations of DNA gyrase and topoisomerase IV.
# [2] = tested on: Staphylococcus aureus EN1252a gyrA^S84L grlA^S80F; experiment: microbe, parasite or virus in culture; conditions: Staphylococcus aureus EN1252a gyrA^S84L grlA^S80F, cipR; read-out: Antimicrobial activity (MIC)
# Description: as §1, §2
# [3] = tested on: Staphylococcus aureus ATCC29213 rpoB^H418Y; experiment: microbe, parasite or virus in culture; conditions: Staphylococcus aureus ATCC29213 rpoB^H418Y, rifR; read-out: Antimicrobial activity (MIC)
# Description: as §1, §2
# [4] = tested on: Enterococcus faecalis ATCC29212; experiment: MIC, microbroth dilution; conditions: Enterococcus faecalis ATCC29212, rifS; read-out: Antimicrobial activity (MIC)
# [5] = tested on: Streptococcus pneumoniae ATCC6303; experiment: MIC, microbroth dilution; conditions: Streptococcus pneumoniae ATCC6303, rifS; read-out: Antimicrobial activity (MIC)
# [6] = tested on: Streptococcus pyogenes ATCC19615; experiment: MIC, microbroth dilution; conditions: Streptococcus pyogenes ATCC19615, rifS; read-out: Antimicrobial activity (MIC)
# [7] = tested on: Haemophilus influenzae ATCC10211; experiment: MIC, microbroth dilution; conditions: Haemophilus influenzae ATCC10211, rifS; read-out: Antimicrobial activity (MIC)
# [8] = tested on: Escherichia coli ATCC25922; experiment: MIC, microbroth dilution; conditions: Escherichia coli ATCC25922, rifS; read-out: Antimicrobial activity (MIC)
# [9] = tested on: Staphylococcus epidermidis ATCC12228; experiment: MIC, microbroth dilution; conditions: Staphylococcus epidermidis ATCC12228, rifS; read-out: Antimicrobial activity (MIC)
# [10] = tested on: Mycobacterium smegmatis ATCC700084; experiment: MIC, microbroth dilution; conditions: Mycolicibacterium smegmatis; Mycobacterium smegmatis ATCC700084, rifS; read-out: Antimicrobial activity (MIC)
# [11] = tested on: Staphylococcus aureus ATCC29213; experiment: MIC, microbroth dilution; conditions: Staphylococcus aureus ATCC29213, rifS; read-out: Antimicrobial activity (MIC)
Structure (SMILES),MIC [1] [µg/mL],MIC [2] [µg/mL],MIC [3] [µg/mL],MIC [4] [µg/mL],MIC [5] [µg/mL],MIC [6] [µg/mL],MIC [7] [µg/mL],MIC [8] [µg/mL],MIC [9] [µg/mL],MIC [10] [µg/mL],MIC [11] [µg/mL]
"CO[C@H]1/C=C/O[C@@]2(C)Oc3c(C)c(O)c4c(c3/C2=N/OCCN2CCC(O)CC2)C(=O)C=C(NC(=O)/C(C)=C\C=C\[C@H](C)[C@H](O)[C@@H](C)[C@@H](O)[C@@H](C)[C@H](OC(C)=O)[C@@H]1C)C4=O [Example 23, 11-Deoxy-11-[2-(4-hydroxypiperadin-1-yl)ethoxyimino]rifamycin S]",0.25 to 32,0.004 to 0.5,0.125 to 16,2 to 32,0.0002 to 0.125,0.0005 to 0.063,0.03 to 2,0.125 to 8,0.0005 to 0.063,0.5 to 64,0.004 to 0.5
CO[C@H]1/C=C/O[C@@]2(C)Oc3c(C)c(O)c4c(c3/C2=N/OCCN2CCOCC2)C(=O)C=C(NC(=O)/C(C)=C\C=C\[C@H](C)[C@H](O)[C@@H](C)[C@@H](O)[C@@H](C)[C@H](OC(C)=O)[C@@H]1C)C4=O [Example 24],0.25 to 32,0.004 to 0.5,0.125 to 16,2 to 32,0.0002 to 0.125,0.0005 to 0.063,0.03 to 2,0.125 to 8,0.0005 to 0.063,0.5 to 64,0.004 to 0.5
"CO[C@H]1/C=C/O[C@@]2(C)Oc3c(C)c(O)c4c(c3/C2=N/OCCN2CCN(Cc3ccccc3)CC2)C(=O)C=C(NC(=O)/C(C)=C\C=C\[C@H](C)[C@H](O)[C@@H](C)[C@@H](O)[C@@H](C)[C@H](OC(C)=O)[C@@H]1C)C4=O [Example 25, 11-Deoxy-11-[2-(4-benzylpiperazin-1-yl)ethoxyimino]rifamycin S]",0.25 to 32,0.004 to 0.5,0.125 to 16,2 to 32,0.0002 to 0.125,0.0005 to 0.063,0.03 to 2,0.125 to 8,0.0005 to 0.063,0.5 to 64,0.004 to 0.5
"CO[C@H]1/C=C/O[C@@]2(C)Oc3c(C)c(O)c4c(c3/C2=N/OCCN2CCN(c3ccccc3O)CC2)C(=O)C=C(NC(=O)/C(C)=C\C=C\[C@H](C)[C@H](O)[C@@H](C)[C@@H](O)[C@@H](C)[C@H](OC(C)=O)[C@@H]1C)C4=O [Example 26, 11-Deoxy-11-{2-[4-(2-hydroxy-phenyl)piperazin-1-yl]ethoxyimino}rifamycin S]",0.25 to 32,0.004 to 0.5,0.125 to 16,2 to 32,0.0002 to 0.125,0.0005 to 0.063,0.03 to 2,0.125 to 8,0.0005 to 0.063,0.5 to 64,0.004 to 0.5
CO[C@H]1/C=C/O[C@@]2(C)Oc3c(C)c(O)c4c(c3/C2=N/O)C(=O)C(CO)=C(NC(=O)/C(C)=C\C=C\[C@H](C)[C@H](O)[C@@H](C)[C@@H](O)[C@@H](C)[C@H](OC(C)=O)[C@@H]1C)C4=O [Example 27],0.25 to 32,0.004 to 0.5,0.125 to 16,2 to 32,0.0002 to 0.125,0.0005 to 0.063,0.03 to 2,0.125 to 8,0.0005 to 0.063,0.5 to 64,0.004 to 0.5
"CO[C@H]1/C=C/O[C@@]2(C)Oc3c(C)c(O)c4c(c3/C2=N/OCC(=O)O)C(=O)C(N2CCOCC2)=C(NC(=O)/C(C)=C\C=C\[C@H](C)[C@H](O)[C@@H](C)[C@@H](O)[C@@H](C)[C@H](OC(C)=O)[C@@H]1C)C4=O [Example 28, 11-Deoxy-3-(morpholin-4-yl)-11-(4-carboxymethoxyimino)-rifamycin S]",0.25 to 32,0.004 to 0.5,0.125 to 16,2 to 32,0.0002 to 0.125,0.0005 to 0.063,0.03 to 2,0.125 to 8,0.0005 to 0.063,0.5 to 64,0.004 to 0.5

# Reference: US7256187B2, “Rifamycin C-11 oxime derivatives effective against drug-resistant microbes” (Cumbre Pharmaceuticals Inc., priority 2004, dated 2007)
